From US8367873B2, “Phenyl-substituted bicyclooctane-1,3-dione derivatives” (Bayer Cropscience AG, priority 2008, dated 2013)

What was measured:
Assay type in all cases: in vivo
[1] = test system: monocotylidonous and dicotylidonous weed and crop plants; assay: Herbicidal pre-emergence action (other test plants); details: pre-emergence method, 80 g/ha, greenhouse, visual assessment vs untreated controls
From the text: (§1) Seeds of monocotylidonous and dicotylidonous weed and crop plants are placed in sandy loam in wood fibre pots and covered with soil. The test compounds, formulated in the form of wettable powders (WP), are then, as an aqueous suspension with a water application rate of 600 l/ha (converted), with 0.2% of wetting agent added, applied to the surface of the covering soil in different amounts.
(§2) After the treatment, the pots are placed in a greenhouse and kept under good growth conditions for the test plants. The visual assessment of the emergence damage on the test plants is carried out after a trial period of three weeks by comparison with the untreated controls (herbicidal effect in percent: 100% effect=the plants have died, 0% effect=like control plants).

[2] = test system: Lolium multiflorum; assay: Herbicidal pre-emergence action; details: pre-emergence method, 80 g/ha, greenhouse, visual assessment vs untreated controls
From the text: as §1, §2

[3] = test system: Echinocloa crus-galli; assay: Herbicidal pre-emergence action; details: pre-emergence method, 80 g/ha, greenhouse, visual assessment vs untreated controls
From the text: as §1, §2

[4] = test system: Alopecurus myosuroides; assay: Herbicidal pre-emergence action; details: pre-emergence method, 80 g/ha, greenhouse, visual assessment vs untreated controls
From the text: as §1, §2

[5] = test system: Setaria viridis; assay: Herbicidal pre-emergence action; details: pre-emergence method, 80 g/ha, greenhouse, visual assessment vs untreated controls
From the text: as §1, §2

[6] = test system: monocotylidonous and dicotylidonous weed and crop plants; assay: Herbicidal post-emergence action (other test plants); details: post-emergence method, 80 g/ha
Description: (§3) Seeds of monocotylidonous and dicotylidonous weed and crop plants are placed in sandy loam in wood fibre pots, covered with soil and cultivated in a greenhouse under good growth conditions. Two to three weeks after sowing, the test plants are treated at the one-leaf stage. The test compounds, formulated as wettable powders (WP), are then with a water application rate of 600 l/ha (converted), with 0.2% of wetting agent added, sprayed onto the green parts of the plants in different amounts. After the test plants have been kept in the greenhouse under optimum growth conditions for about three weeks, the effect of the preparations is assessed visually in comparison to untreated controls (herbicidal effect in percent: 100% effect=the plants have died, 0% effect=like control plants).

[7] = test system: Lolium multiflorum; assay: Herbicidal post-emergence action; details: post-emergence method, 80 g/ha
Description: as §3

[8] = test system: Echinocloa crus-galli; assay: Herbicidal post-emergence action; details: post-emergence method, 80 g/ha
Description: as §3

[9] = test system: Alopecurus myosuroides; assay: Herbicidal post-emergence action; details: post-emergence method, 80 g/ha
Description: as §3

[10] = test system: Setaria viridis; assay: Herbicidal post-emergence action; details: post-emergence method, 80 g/ha
Description: as §3

Row | SMILES | herbicidal effect AVEFA [1] | herbicidal effect LOLMU [2] | herbicidal effect ECHCG [3] | herbicidal effect ALOMY [4] | herbicidal effect SETVI [5] | herbicidal effect against AVEFA (Avena fatua) [6] | herbicidal effect against LOLMU (Lolium multiflorum) [7] | herbicidal effect against ECHCG (Echinochloa crus-galli) [8] | herbicidal effect against ALOMY (Alopecurus myosuroides) [9] | herbicidal effect against SETVI (Setaria viridis) [10]
1 | C=C1CC2C(=O)C(c3c(C)cc(C)cc3C)=C(OC(=O)C(C)(C)C)C2C1 (stereo not shown) [I-b-37] | 40% | 70% | 70% | 90% | 70% | 0% | 70% | 90% | 0% | 90%
2 | CCc1cc(C)cc(CC)c1C1=C(OC(=O)C(C)(C)CC)C2CC3(CC2C1=O)OCCCO3 (stereo not shown) [I-b-30] | 70% | 100% | 100% | 100% | 90% | 100% | 100% | 100% | 20% | 90%
3 | CCc1cc(C)cc(CC)c1C1=C(O)[C@H]2CC3(C[C@H]2C1=O)OC(C)(C)C(C)(C)O3 (relative stereo) [I-a-19] | 20% | 100% | 0% | 90% | 20% | 0% | 100% | 90% | 80% | 50%
4 | CCOC(=O)OC1=C(c2c(C)cc(C)cc2CC)C(=O)C2CC3(CC12)OCCCCO3 (racemic) [I-c-75] | 60% | 100% | 100% | 70% | 60% | 50% | 100% | 100% | 60% | 100%
5 | COc1cc(C)cc(C)c1C1=C(OC(=O)C(C)C)C2CC3(CC2C1=O)OCCCO3 (stereo not shown) [I-b-64] | 50% | 100% | 0% | 60% | 90% | 100% | 100% | 100% | 100% | 100%
6 | C=C1CC2C(=O)C(c3c(C)cc(C)cc3OC)=C([O-])C2C1.[Na+] (stereo not shown) [I-f-22] | 70% | 80% | – | 80% | 100% | 40% | 80% | 100% | 30% | 100%
7 | CCOC(=O)OC1=C(c2c(CC)cc(C)cc2CC)C(=O)C2CC3(CC12)OCC(C)(C)CO3 (racemic) [I-c-6] | 10% | 80% | 90% | 50% | 60% | – | – | – | – | –
8 | Cc1cc(C)c(C2=C(OC(=O)C(C)C)C3CC4(CC3C2=O)OCC=CCO4)c(C)c1 (stereo not shown) [I-b-42] | 70% | 100% | 60% | – | 90% | 80% | 100% | 100% | 100% | 100%
9 | CCc1cc(C)cc(CC)c1C1=C(OC(=O)C(C)C)C2CC3(CC2C1=O)OCCCO3 (stereo not shown) [I-b-29] | 70% | 100% | 100% | – | 80% | 90% | 100% | 100% | 100% | 100%
10 | CCc1cc(C)cc(CC)c1C1=C(OC(=O)C(C)C)C2CC3(CC2C1=O)OC(C)CC(C)O3 (stereo not shown) [I-b-15] | 50% | 80% | 100% | 80% | – | 90% | 100% | 100% | 100% | 100%
11 | CCc1cc(C)cc(CC)c1C1=C(O)[C@H]2CC(=NOC3CC3)C[C@H]2C1=O (relative stereo) [I-a-30] | 0% | 70% | – | 80% | 70% | 0% | 90% | 100% | 90% | 50%
12 | CCOC(=O)OC1=C(c2c(C)cc(C)cc2CC)C(=O)C2CC3(CC12)OCCO3 (racemic) [I-c-71] | 70% | 100% | 100% | 70% | 90% | 90% | 100% | – | 80% | 100%
13 | Cc1cc(C)c(C2=C(O)C3CC4(CC3C2=O)OCC=CCO4)c(C)c1 (stereo not shown) [I-a-41] | 60% | 100% | 50% | 60% | – | 40% | 100% | 90% | 100% | 100%
14 | CCOC(=O)OC1=C(c2c(CC)cc(C)cc2CC)C(=O)C2CC3(CC12)OCC(OCc1ccccc1)CO3 (stereo not shown) [I-c-28] | 60% | – | 100% | 90% | 50% | 100% | 100% | 100% | 100% | 100%
15 | CCc1cc(C)cc(CC)c1C1=C(OC(=O)C(C)(C)C)C2CC3(CC2C1=O)OCCCO3 (stereo not shown) [I-b-27] | 70% | 100% | 100% | – | 70% | 100% | 100% | 100% | 100% | 100%
16 | CCc1cc(C)cc(CC)c1C1=C(OC(=O)OC)C2CC3(CC2C1=O)OCCCO3 (stereo not shown) [I-c-35] | 70% | 100% | – | 80% | 70% | 100% | 100% | 100% | 100% | 100%
17 | CCc1cc(C)cc(C)c1C1=C(OC(=O)C(C)C)C2CC3(CC2C1=O)OCCCCO3 (stereo not shown) [I-b-77] | 40% | 90% | – | 60% | 60% | 60% | 100% | 100% | 100% | 90%
18 | CCc1cc(C)cc(CC)c1C1=C(OC(=O)C(C)(C)C)C2CC3(COC(C)(C)O3)CC2C1=O (stereo not shown) [I-b-5] | – | 100% | 10% | 90% | 60% | 20% | 100% | 80% | 90% | 0%
